We go through 1 compound from BindingDB's records for patent US10800778 (Entasis Therapeutics Limited, 2020).

One assay deals with Beta-lactamase TEM (Escherichia coli, UniProt P62593). The experiment in a line: Inhibition of Beta-Lactamase Enzymes. The protocol: (§1) A buffer consisting of 0.1 M sodium phosphate (pH 7.0), 10 mM NaHCO3, and 0.005% Triton X-100 was used for all enzymes. The chromogenic substrate nitrocefin (SynGene, Bangalore, India) was used at 100 μM. Enzyme activity was monitored by the 490 nm absorbance increase upon nitrocefin hydrolysis. Assays were performed in clear polystyrene 384-well plates (Greiner Bio-One, Monroe, N.C.). Absorbance was measured for 1 hour at 30-s intervals using a Spectramax absorbance plate reader (Molecular Devices, Sunnyvale, Calif.). Measurement of beta-lactamase inhibition by INHIBITOR employed serial 3-fold dilutions of the inhibitor in assay buffer, ranging from 100 μM to 62.7 pM. A background absorbance progress curve for a control lacking enzyme and inhibitor was subtracted from each progress curve.
Chain of Beta-lactamase TEM (P62593 whole entry): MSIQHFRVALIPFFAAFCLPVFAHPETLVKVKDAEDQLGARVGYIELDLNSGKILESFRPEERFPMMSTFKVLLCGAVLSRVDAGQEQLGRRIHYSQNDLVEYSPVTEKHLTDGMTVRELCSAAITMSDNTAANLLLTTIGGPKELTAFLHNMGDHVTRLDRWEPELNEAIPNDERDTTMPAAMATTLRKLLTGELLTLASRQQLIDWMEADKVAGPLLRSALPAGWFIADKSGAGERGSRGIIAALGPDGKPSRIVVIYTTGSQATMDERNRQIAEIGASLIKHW

The next assay addresses Beta-lactamase (Klebsiella pneumoniae, UniProt Q6XEC0). The assay can be described thus: Inhibition of Beta-Lactamase Enzymes. The protocol: as §1

Chain of Beta-lactamase (Q6XEC0 whole entry): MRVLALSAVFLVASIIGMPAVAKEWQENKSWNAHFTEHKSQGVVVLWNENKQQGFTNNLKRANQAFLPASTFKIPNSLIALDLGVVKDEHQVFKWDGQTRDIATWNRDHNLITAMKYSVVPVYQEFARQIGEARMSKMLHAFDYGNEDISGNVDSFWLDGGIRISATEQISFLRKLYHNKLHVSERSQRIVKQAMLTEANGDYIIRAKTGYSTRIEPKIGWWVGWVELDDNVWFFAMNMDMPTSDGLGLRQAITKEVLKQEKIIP

Consider `CC1=C[C@@H]2CN(C(=O)N2O[C@@H](F)C(=O)O)[C@@H]1C(=O)NOC[C@@H]1CCCN1` [US10800778, Example 62], for which the IC50 (as a rule, the point on the concentration scale where inhibition reaches its midpoint) on Beta-lactamase TEM came out at 210 nM; at Beta-lactamase, 870 nM.
